Source: US20230391760A1, “HETEROCYCLIC GLP-1 AGONISTS” (Gasherbrum Bio, Inc., priority 2020, published 2023)

Target: GLP-1 Receptor (Homo sapiens, UniProt P43220)
Assay: GLP-1R agonist cAMP stimulation assay (HEK293/GLP1R/CRE-LUC cells, cAMP dynamic 2 Kit)
Type: cell-based
Conditions: HEK293/CRE-Luc cell line stably expressing the GLP-1 Receptor, 30 min at 37° C.
In short: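 cAMP measured by HTRF competition (d2-labelled cAMP with cryptate antibody, 1 h, room temperature, protected from light). Before that, GLP1R/CRE-Luc HEK293 cells (1000/well) were exposed for 30 min at 37 °C to half-log compound dilutions in DPBS containing IBMX 0.5 mM and BSA 0.1%.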

Sequence of GLP-1 Receptor (P43220 24-463, species assumed): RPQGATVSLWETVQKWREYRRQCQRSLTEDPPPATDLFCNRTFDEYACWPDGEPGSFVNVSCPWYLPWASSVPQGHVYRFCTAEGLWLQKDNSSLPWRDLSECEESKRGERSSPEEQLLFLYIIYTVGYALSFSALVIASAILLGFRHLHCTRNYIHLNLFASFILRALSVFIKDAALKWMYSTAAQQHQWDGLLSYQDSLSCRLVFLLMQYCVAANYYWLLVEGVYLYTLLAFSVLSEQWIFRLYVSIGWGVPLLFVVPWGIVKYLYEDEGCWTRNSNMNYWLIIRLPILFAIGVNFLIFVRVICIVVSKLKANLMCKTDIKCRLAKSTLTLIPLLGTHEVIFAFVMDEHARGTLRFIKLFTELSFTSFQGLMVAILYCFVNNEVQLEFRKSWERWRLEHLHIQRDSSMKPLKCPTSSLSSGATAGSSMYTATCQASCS

`Nc1cccc(-c2ccc3c(c2)nc(CN2CCC(c4cccc(OCc5ccc(Cl)cc5F)n4)CC2)n3C[C@@H]2CCO2)n1` [Compound 212a, 6-{2-[(4-{6-[(4-chloro-2-fluorophenyl)methoxy]pyridin-2-yl}piperidin-1-yl)methyl]-1-{[(2S)-oxetan-2-yl]methyl}-1H-1,3-benzodiazol-5-yl}pyridin-2-amine] showed an EC50 of 7500 pM.

Molecule `Cc1ncc(-c2ccc3c(c2)nc(CN2CCC(c4cccc5c4OC(C)(c4ccc(Cl)cc4F)O5)CC2)n3C[C@@H]2CCO2)cn1` (stereo partly drawn) [Compound 237a, 2-((4-(2-(4-chloro-2-fluorophenyl)-2-methylbenzo[d][1,3]dioxol-4-yl)piperidin-1-yl)methyl)-5-(2-methylpyrimidin-5-yl)-1-(((S)-oxetan-2-yl)methyl)-1H-benzo[d]imidazole] has an EC50 of 9100 pM.

`Fc1cc(Cl)ccc1COc1cc(C2CCN(Cc3nc4cc(-c5nnc(C(F)(F)F)[nH]5)nnc4n3C[C@@H]3CCO3)CC2)ccc1F` [Compound 520a, 4-{3-[(4-chloro-2-fluorophenyl)methoxy]-4-fluorophenyl}-1-[(7-{[(2S)-oxetan-2-yl]methyl}-3-[5-(trifluoromethyl)-4H-1,2,4-triazol-3-yl]-7H-imidazo[4,5-c]pyridazin-6-yl)methyl]piperidine] was tested, and the EC50 was 340 pM.

With `N#Cc1ccc(COc2cccc(C3=CCN(Cc4nc5cc(-c6nnc(C(F)(F)F)[nH]6)cnc5n4C[C@@H]4CCO4)CC3)c2)c(F)c1` [Compound 317a, 3-fluoro-4-[(3-{1-[(3-{[(2S)-oxetan-2-yl]methyl}-6-[5-(trifluoromethyl)-4H-1,2,4-triazol-3-yl]-3H-imidazo[4,5-b]pyridin-2-yl)methyl]-1,2,3,6-tetrahydropyridin-4-yl}phenoxy)methyl]benzonitrile] the EC50 was 110 pM.

`CC1(C)CCC(C(=O)Nc2ccc3c(c2)nc(CN2CCC(c4cccc(OCc5ccc(Cl)cc5F)n4)CC2)n3C[C@@H]2CCO2)CO1` (stereo partly drawn) [Compound 192a, N-{2-[(4-{6-[(4-chloro-2-fluorophenyl)methoxy]pyridin-2-yl}piperidin-1-yl)methyl]-1-{[(2S)-oxetan-2-yl]methyl}-1H-1,3-benzodiazol-5-yl}-6,6-dimethyloxane-3-carboxamide] was tested, and the EC50 was 6200 pM.

Molecule `CC1(c2ccc(Cl)cc2F)Oc2cccc(C3CCN(Cc4nc5cc(-c6nnn[nH]6)ccc5n4C[C@@H]4CCO4)CC3)c2O1` (stereo partly drawn) [Compound 232a, 2-((4-(2-(4-chloro-2-fluorophenyl)-2-methylbenzo[d][1,3]dioxol-4-yl)piperidin-1-yl)methyl)-1-(((S)-oxetan-2-yl)methyl)-5-(1H-tetrazol-5-yl)-1H-benzo[d]imidazole] has an EC50 of 160 pM.

Work on `N#Cc1ccc(COc2cccc(C3=CCN(Cc4nc5cc(-c6noc(=O)[nH]6)cnc5n4C[C@@H]4CCO4)CC3)c2)c(F)c1` [Compound 318a, 3-fluoro-4-[(3-{1-[(3-{[(2S)-oxetan-2-yl]methyl}-6-(5-oxo-4,5-dihydro-1,2,4-oxadiazol-3-yl)-3H-imidazo[4,5-b]pyridin-2-yl)methyl]-1,2,3,6-tetrahydropyridin-4-yl}phenoxy)methyl]benzonitrile] yielded an EC50 of 10000 pM.

In the case of `O=C(Nc1ccc2c(c1)nc(CN1CCC(c3cccc(OCc4ccc(Cl)cc4F)n3)CC1)n2C[C@@H]1CCO1)C1(C2CC2)CCCO1` (stereo partly drawn) [Compound 199a, N-{2-[(4-{6-[(4-chloro-2-fluorophenyl)methoxy]pyridin-2-yl}piperidin-1-yl)methyl]-1-{[(2S)-oxetan-2-yl]methyl}-1H-1,3-benzodiazol-5-yl}-2-cyclopropyloxolane-2-carboxamide], the EC50 is reported as 7400 pM.

In the case of `C[C@]1(c2ccc(Cl)cc2F)Oc2cccc(C3CCN(Cc4nc5cc(-c6nnc(C7CC7)[nH]6)ccc5n4C[C@@H]4CCO4)CC3)c2O1` [Compound 283a, 2-({4-[(2S)-2-(4-chloro-2-fluorophenyl)-2-methyl-2H-1,3-benzodioxol-4-yl]piperidin-1-yl}methyl)-5-(5-cyclopropyl-4H-1,2,4-triazol-3-yl)-1-{[(2S)-oxetan-2-yl]methyl}-1H-1,3-benzodiazole], the EC50 is reported as 100 pM.

In the case of `CC1(c2ccc(C#N)cc2F)Oc2cccc(C3CCN(Cc4nc5cc(-c6noc(=O)[nH]6)ncc5n4C[C@@H]4CCO4)CC3)c2O1` (stereo partly drawn) [Compound 341a, 3-fluoro-4-(2-methyl-4-{1-[(3-{[(2S)-oxetan-2-yl]methyl}-6-(5-oxo-4,5-dihydro-1,2,4-oxadiazol-3-yl)-3H-imidazo[4,5-c]pyridin-2-yl)methyl]piperidin-4-yl}-2H-1,3-benzodioxol-2-yl)benzonitrile], the EC50 is reported as 26 pM.

`Fc1cc(Cl)ccc1COc1ncccc1C1CCN(Cc2nc3cc(-c4nnc(C(F)(F)F)[nH]4)ccc3n2C[C@@H]2CCO2)CC1` [Compound 393a, 2-[(4-{2-[(4-chloro-2-fluorophenyl)methoxy]pyridin-3-yl}piperidin-1-yl)methyl]-1-{[(2S)-oxetan-2-yl]methyl}-5-[5-(trifluoromethyl)-4H-1,2,4-triazol-3-yl]-1H-1,3-benzodiazole] gave an EC50 of 63 pM.

In the case of `O=c1[nH]c(-c2cc3nc(CN4CCC(c5cccc(OCc6ccc(Cl)cc6F)n5)CC4)n(C[C@@H]4CCO4)c3cn2)no1` [Compound 316a, 3-{2-[(4-{6-[(4-chloro-2-fluorophenyl)methoxy]pyridin-2-yl}piperidin-1-yl)methyl]-3-{[(2S)-oxetan-2-yl]methyl}-3H-imidazo[4,5-c]pyridin-6-yl}-4,5-dihydro-1,2,4-oxadiazol-5-one], the EC50 is reported as 37 pM.

`CC1(c2ccc(C#N)cc2F)Oc2cccc(C3CCN(Cc4nc5cc(-c6nnc(C(F)(F)F)[nH]6)cnc5n4C[C@@H]4CCO4)CC3)c2O1` (stereo partly drawn) [Compound 403a, 3-fluoro-4-(2-methyl-4-{1-[(3-{[(2S)-oxetan-2-yl]methyl}-6-[5-(trifluoromethyl)-4H-1,2,4-triazol-3-yl]-3H-imidazo[4,5-b]pyridin-2-yl)methyl]piperidin-4-yl}-2H-1,3-benzodioxol-2-yl)benzonitrile] gave an EC50 of 20 pM.

For `O=c1[nH]c(-c2cc3nc(CN4CCN(c5ccc(F)c(OCc6ccc(Cl)cc6F)c5)CC4)n(C[C@@H]4CCO4)c3cn2)no1` [Compound 439a, 3-{2-[(4-{3-[(4-chloro-2-fluorophenyl)methoxy]-4-fluorophenyl}piperazin-1-yl)methyl]-3-{[(2S)-oxetan-2-yl]methyl}-3H-imidazo[4,5-c]pyridin-6-yl}-4,5-dihydro-1,2,4-oxadiazol-5-one], the EC50 was 2300 pM.

With `Fc1cc(Cl)ccc1COc1cccc(C2CCN(Cc3nc4cc(-c5cn[nH]n5)ccc4n3C[C@@H]3CCO3)CC2)n1` [Compound 149a, 2-[(4-{6-[(4-chloro-2-fluorophenyl)methoxy]pyridin-2-yl}piperidin-1-yl)methyl]-1-{[(2S)-oxetan-2-yl]methyl}-5-(2H-1,2,3-triazol-4-yl)-1H-1,3-benzodiazole] the EC50 was 4800 pM.

For `CC1(c2ccc(Cl)cn2)Oc2cccc(C3CCN(Cc4nc5cc(-c6nnc(C7CC7)[nH]6)ccc5n4C[C@@H]4CCO4)CC3)c2O1` (stereo partly drawn) [Compound 270a, 2-({4-[2-(5-chloropyridin-2-yl)-2-methyl-2H-1,3-benzodioxol-4-yl]piperidin-1-yl}methyl)-5-(5-cyclopropyl-4H-1,2,4-triazol-3-yl)-1-{[(2S)-oxetan-2-yl]methyl}-1H-1,3-benzodiazole], the EC50 was 860 pM.

`N#Cc1ccc(COc2cccc(C3=CCN(Cc4nc5cc(-c6nnc(C(F)(F)F)[nH]6)cnc5n4C[C@@H]4CCO4)CC3)n2)c(F)c1` [Compound 321a, 3-fluoro-4-[({1′-[(3-{[(2S)-oxetan-2-yl]methyl}-6-[5-(trifluoromethyl)-4H-1,2,4-triazol-3-yl]-3H-imidazo[4,5-b]pyridin-2-yl)methyl]-1′,2′,3′,6′-tetrahydro-[2,4′-bipyridin]-6-yl}oxy)methyl]benzonitrile] showed an EC50 of 22 pM.

Molecule `CC1(c2ccc(Cl)cc2F)Oc2cccc(C3CCN(Cc4nc5cc(-c6nnc(C(F)(F)F)[nH]6)ccc5n4C[C@@H]4CCO4)CC3)c2O1` (mixture of isomers) [Compound 229a, 2-({4-[2-(4-chloro-2-fluorophenyl)-2-methyl-2H-1,3-benzodioxol-4-yl]piperidin-1-yl}methyl)-1-{[(2S)-oxetan-2-yl]methyl}-5-[5-(trifluoromethyl)-4H-1,2,4-triazol-3-yl]-1H-1,3-benzodiazole] has an EC50 of 46 pM.

For `O=C(Nc1ccc2c(c1)nc(CN1CCC(c3cccc(OCc4ccc(Cl)cc4F)n3)CC1)n2C[C@@H]1CCO1)C1CCCOC1` (single isomer, unassigned) [Compound 154c], the EC50 was 1500 pM.

With `CC1(c2ccc(Cl)cc2F)Oc2cccc(C3CCN(Cc4nc5cc(-c6nnc(C(F)(F)F)[nH]6)cnc5n4C[C@H]4CCOC4)CC3)c2O1` (stereo partly drawn) [Compound 401a, 4-[2-(4-chloro-2-fluorophenyl)-2-methyl-2H-1,3-benzodioxol-4-yl]-1-[(3-{[(3R)-oxolan-3-yl]methyl}-6-[5-(trifluoromethyl)-4H-1,2,4-triazol-3-yl]-3H-imidazo[4,5-b]pyridin-2-yl)methyl]piperidine] the EC50 was 600 pM.

In the case of `CC(C)C(=O)Nc1ccc2c(c1)nc(CN1CCC(c3cccc(OCc4ccc(Cl)cc4F)n3)CC1)n2C[C@@H]1CCO1` [Compound 105a, (S)—N-(2-((4-(6-((4-chloro-2-fluorobenzyl)oxy)pyridin-2-yl)piperidin-1-yl)methyl)-1-(oxetan-2-ylmethyl)-1H-benzo[d]imidazol-5-yl)isobutyramide], the EC50 is reported as 175 pM.

For `CO[C@@H](C)Cn1c(CN2CCC(c3cccc4c3OC(C)(c3ccc(Cl)cn3)O4)CC2)nc2cc(-c3nnc(C(F)(F)F)[nH]3)ncc21` (stereo partly drawn) [Compound 445a, 5-chloro-2-{4-[1-({3-[(2S)-2-methoxypropyl]-6-[5-(trifluoromethyl)-4H-1,2,4-triazol-3-yl]-3H-imidazo[4,5-c]pyridin-2-yl}methyl)piperidin-4-yl]-2-methyl-2H-1,3-benzodioxol-2-yl}pyridine], the EC50 was 2000 pM.

Molecule `O=c1[nH]c(-c2cnc3c(c2)nc(CN2CCC(c4cccc5c4OC[C@@H](c4ccc(Cl)cc4)O5)CC2)n3C[C@@H]2CCO2)no1` [Compound 407a, 3-[2-({4-[(2R)-2-(4-chlorophenyl)-2,3-dihydro-1,4-benzodioxin-5-yl]piperidin-1-yl}methyl)-3-{[(2S)-oxetan-2-yl]methyl}-3H-imidazo[4,5-b]pyridin-6-yl]-4,5-dihydro-1,2,4-oxadiazol-5-one] has an EC50 of 4500 pM.
